Experimental data reported in US20020032325A1, “4-amino-3-mercapto-1,2,4-triazoles” (priority 1999, published 2002).

Experiments:
[1] = molecular target: T1, nitric oxide synthase (Mus musculus, UniProt P29477); test: NOS inhibition assay: nitric oxide (nitrite, Greiss reagent) production from PAM 212 keratinocytes stimulated with gamma interferon; type: cell-based; conditions: 100 U/ml gamma interferon, 72 hours, nitrite in medium
T1 sequence (P29477 1-1144): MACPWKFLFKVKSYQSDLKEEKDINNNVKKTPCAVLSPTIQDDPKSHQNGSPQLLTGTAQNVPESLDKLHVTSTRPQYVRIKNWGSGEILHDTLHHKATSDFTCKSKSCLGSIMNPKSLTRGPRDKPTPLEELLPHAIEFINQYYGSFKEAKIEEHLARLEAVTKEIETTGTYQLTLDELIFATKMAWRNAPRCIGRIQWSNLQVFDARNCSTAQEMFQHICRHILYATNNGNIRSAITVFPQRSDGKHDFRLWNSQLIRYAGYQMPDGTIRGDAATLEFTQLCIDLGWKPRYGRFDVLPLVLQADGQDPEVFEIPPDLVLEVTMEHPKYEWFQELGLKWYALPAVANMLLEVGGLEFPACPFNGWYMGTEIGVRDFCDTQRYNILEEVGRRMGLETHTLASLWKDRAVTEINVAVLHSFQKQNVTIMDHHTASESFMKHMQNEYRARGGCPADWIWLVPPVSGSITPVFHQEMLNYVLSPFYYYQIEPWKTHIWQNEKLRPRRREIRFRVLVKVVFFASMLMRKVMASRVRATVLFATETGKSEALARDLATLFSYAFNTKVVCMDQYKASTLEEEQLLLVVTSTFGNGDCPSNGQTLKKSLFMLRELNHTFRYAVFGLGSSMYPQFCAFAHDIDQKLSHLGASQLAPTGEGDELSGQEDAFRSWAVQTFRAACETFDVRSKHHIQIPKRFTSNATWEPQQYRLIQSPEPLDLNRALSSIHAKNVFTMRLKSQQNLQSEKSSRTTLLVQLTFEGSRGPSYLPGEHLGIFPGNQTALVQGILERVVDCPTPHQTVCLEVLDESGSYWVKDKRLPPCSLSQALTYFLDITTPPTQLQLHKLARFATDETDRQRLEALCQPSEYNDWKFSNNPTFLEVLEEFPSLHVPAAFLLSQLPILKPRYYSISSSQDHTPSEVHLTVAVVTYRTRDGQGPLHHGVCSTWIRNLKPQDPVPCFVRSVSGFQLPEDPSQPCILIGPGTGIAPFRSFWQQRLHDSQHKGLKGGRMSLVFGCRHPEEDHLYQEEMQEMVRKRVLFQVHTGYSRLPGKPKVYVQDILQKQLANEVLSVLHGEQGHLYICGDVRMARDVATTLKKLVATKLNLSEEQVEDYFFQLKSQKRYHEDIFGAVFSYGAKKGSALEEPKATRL

[2] = test system: PAM 212 cells; test: Antiproliferative assay, PAM 212 tumor cells counted with Coulter counter; type: cell-based; conditions: Mus musculus, PAM212, grown 4 to 5 days, read-out: IC50, concentration inhibiting cell growth by 50%
Description: The ability of any one of the compounds according to the present invention to inhibit cell growth is recognized by the scientific community to be directly related to its therapeutic potential as an anticancer agent. This type of growth assay can be used with mammalian cancer cells as well as with pathogenic and non-pathogenic microbes, including, but not limited to, yeasts and bacteria. To assay these compounds for anticancer activity, tumor cells (PAM 212) grown in vitro in monolayer culture flasks were used. […] Triplicate wells on the plates were used to measure control growth and growth of the cells in the presence of each concentration of anticancer agent. The cells were then returned to the incubator. […] The cells from each well on the culture dishes were removed by trypsin treatment and counted with a Coulter counter. After a period of time, the number of cells in each well was determined. The data can be presented as a curve showing the inhibition of tumor cell growth with increasing concentrations of the test compound. […] Each of the compounds according to the present invention was a potent inhibitor of cell growth with the IC50 values being typically in the micromolar concentration range.

SMILES	IC50 [1]	melting point	IC50 [2]
Fc1ccc(-c2nnc3n2N=C(C(F)(F)F)CS3)cc1	30 µM	–	–
CC(CCCl)Sc1nnc(-c2cccs2)n1N (stereo not drawn)	–	196 to 197 °C	–
O=[N+]([O-])c1ccccc1C=CC=Nn1c(S)nnc1-c1cccs1 [Compound VIIc]	12 µM	214 to 215 °C	60 µM
CSc1nnc(C2CCCCC2)n1N=CC(Br)=Cc1ccccc1 [Compound Xi]	146 µM	–	–
Nn1c(-c2cccs2)n[nH]c1=S [III (R = 2-thienyl), 4-amino-3-mercapto-5-(2-thienyl)-(4H)-1,2,4-triazole]	77 µM	–	–
Nn1c(S)nnc1-c1ccc(F)cc1 [III (R = 4-F—C6H4—)]	98 µM	–	–
Brc1ccccc1-c1nnc2n1N=CC=C(c1ccccc1)S2 [IV (R = 2-Br—C6H4—, R′ = H)]	87 µM	–	–
C1=Nn2c(Cc3ccccc3)nnc2SC(c2ccccc2)=C1 [IV (R = benzyl, R′ = H)]	52 µM	–	–
Fc1ccc(-c2nnc3n2N=CC=C(c2ccccc2)S3)cc1 [IVb]	21 µM	217 to 219 °C	–
C1=Nn2c(nnc2-c2cccs2)SC(c2ccccc2)=C1 [IVc]	48 µM	164 to 166 °C	–
CN1C(C=Cc2ccccc2)Sc2nnc(-c3cccs3)n21 (stereo not drawn) [IXa]	15 µM	250 to 252 °C	44 µM
CN1C(C=Cc2ccccc2)Sc2nnc(-c3ccco3)n21 (stereo not drawn) [IXd]	14 µM	128 to 129.5 °C	45 µM
Cc1nnc2n1N(C)C(C=Cc1ccccc1)S2 (stereo not drawn) [IXf]	17 µM	125 to 126 °C	> 100 µM
COC(=O)CCSc1nnc(C)n1N [VI (R = methyl, R′ = —CH2—CH2—COOMe)]	170 µM	–	–
Fc1ccc(-c2nnc3n2N=C(c2ccccc2)CS3)cc1 [VIII (R = 4-F—C6H4—, R′ = phenyl)]	> 100 µM	–	–
Cc1nnc2n1N=C(C(F)(F)F)CS2 [VIIIc]	> 100 µM	85 to 86 °C	–
Sc1nnc(-c2cccs2)n1N=CC=Cc1ccccc1 [VIIa, 4-imino-(cinnamyl)-3-mercapto-5-(2-thienyl)-4H-1,2,4-triazole]	35 µM	206 to 206.5 °C	–
COc1ccccc1C=CC=Nn1c(S)nnc1-c1cccs1 [VIIb]	> 100 µM	227 to 228 °C	–
Oc1cccc(C=Nn2c(S)nnc2-c2cccnc2)c1O [VIIr]	29 µM	–	–
CC(CC(=O)Oc1ccccc1)Sc1nnc(-c2cccs2)n1N (stereo not drawn) [VIb]	> 100 µM	109.5 to 111 °C	–
C1=C(c2ccccc2)Sc2nnc(-c3ccccc3)n2NC1 [Va]	110 µM	222 to 223 °C	–
